Experimental data: patent US20130005747A1, “METHOD FOR SELECTING A CANCER THERAPY” (Cyclacel Limited, priority 2010, published 2013)

Assays:
Assay in all cases: Fractional growth, 72 h seliciclib
Format in all cases: cell-based, human
COLO 205 = COLO 205 (Intestine), 15 μM seliciclib
Description: (§1) A total of 270 human cancer cell lines from diverse cancer histopathologic types were investigated.

JHH-6 = JHH-6 (Liver), 15 μM seliciclib
Description: as §1

RVH-421 = RVH-421 (Skin), 15 μM seliciclib
Description: as §1

HCC-366 = HCC-366 (Lung: NSCLC), 15 μM seliciclib
Description: as §1

Calu-1 = Calu-1 (Lung: NSCLC), 15 μM seliciclib
Description: as §1

HCC38 = HCC38 (Breast), 15 μM seliciclib
Description: as §1

PC-3 = PC-3 (Prostate), 15 μM seliciclib
Description: as §1

HOS = HOS (Bone), 15 μM seliciclib
Description: as §1

HT115 = HT115 (Intestine), 15 μM seliciclib
Description: as §1

NCI-H1048 = NCI-H1048 (Lung), 15 μM seliciclib
Description: as §1

C-33 A = C-33 A (Cervix), 15 μM seliciclib
Description: as §1

NCI-H2085 = NCI-H2085 (Lung: NSCLC), 15 μM seliciclib
Description: as §1

SW 900 = SW 900 (Lung: NSCLC), 15 μM seliciclib
Description: as §1

C32 = C32 (Skin), 15 μM seliciclib
Description: as §1

KP-3 = KP-3 (Pancreas), 15 μM seliciclib
Description: as §1

G-292 Clone A141B1 = G-292 Clone A141B1 (Bone), 15 μM seliciclib
Description: as §1

MFE-280 = MFE-280 (Uterus), 15 μM seliciclib
Description: as §1

143B = 143B (Bone), 15 μM seliciclib
Description: as §1

HCT-15 = HCT-15 (Intestine), 15 μM seliciclib
Description: as §1

NCI-H1581 = NCI-H1581 (Lung: NSCLC), 15 μM seliciclib
Description: as §1

A-375 = A-375 (Skin), 15 μM seliciclib
Description: as §1

RT4 = RT4 (Bladder), 15 μM seliciclib
Description: as §1

MS751 = MS751 (Cervix), 15 μM seliciclib
Description: as §1

A2780 = A2780 (Ovary), 15 μM seliciclib
Description: as §1

SW 780 = SW 780 (Bladder), 15 μM seliciclib
Description: as §1

LU99B = LU99B (Lung: NSCLC), 15 μM seliciclib
Description: as §1

MEL-JUSO = MEL-JUSO (Skin), 15 μM seliciclib
Description: as §1

U-2 OS = U-2 OS (Bone), 15 μM seliciclib
Description: as §1

NCI-H1975 = NCI-H1975 (Lung: NSCLC), 15 μM seliciclib
Description: as §1

AZ-521 = AZ-521 (Stomach), 15 μM seliciclib
Description: as §1

JHU-013 = JHU-013 (Head & Neck), 15 μM seliciclib
Description: as §1

SU.86.86 = SU.86.86 (Pancreas), 15 μM seliciclib
Description: as §1

BHT-101 = BHT-101 (Thyroid), 15 μM seliciclib
Description: as §1

CaR-1 = CaR-1 (Intestine), 15 μM seliciclib
Description: as §1

Ca Ski = Ca Ski (Cervix), 15 μM seliciclib
Description: as §1

RCM-1 = RCM-1 (Intestine), 15 μM seliciclib
Description: as §1

VM-CUB1 = VM-CUB1 (Bladder), 15 μM seliciclib
Description: as §1

CC[C@H](CO)Nc1nc(NCc2ccccc2)c2ncn(C(C)C)c2n1 [seliciclib, roscovitine]
Fractional Growth (COLO 205): 0.4437
Fractional Growth (JHH-6): 0.3234
Fractional Growth (RVH-421): 0.4165
Fractional Growth (HCC-366): 0.2561
Fractional Growth (Calu-1): 0.6124
Fractional Growth (HCC38): 0.8297
Fractional Growth (PC-3): 0.4021
Fractional Growth (HOS): 0.617
Fractional Growth (HT115): 0.4837
Fractional Growth (NCI-H1048): 0.5502
Fractional Growth (C-33 A): 0.5677
Fractional Growth (NCI-H2085): 0.4597
Fractional Growth (SW 900): 0.5842
Fractional Growth (C32): 0.5391
Fractional Growth (KP-3): 0.3396
Fractional Growth (G-292 Clone A141B1): 0.6393
Fractional Growth (MFE-280): 0.5959
Fractional Growth (143B): 0.6124
Fractional Growth (HCT-15): 0.5363
Fractional Growth (NCI-H1581): 0.7659
Fractional Growth (A-375): 0.1771
Fractional Growth (RT4): 0.9342
Fractional Growth (MS751): 0.3573
Fractional Growth (A2780): 0.4827
Fractional Growth (SW 780): 0.3743
Fractional Growth (LU99B): 0.2318
Fractional Growth (MEL-JUSO): 0.4945
Fractional Growth (U-2 OS): 0.5686
Fractional Growth (NCI-H1975): 0.4117
Fractional Growth (AZ-521): 0.5115
Fractional Growth (JHU-013): 0.2699
Fractional Growth (SU.86.86): 0.3887
Fractional Growth (BHT-101): 0.4486
Fractional Growth (CaR-1): 0.5795
Fractional Growth (Ca Ski): 0.591
Fractional Growth (RCM-1): 0.6689
Fractional Growth (VM-CUB1): 0.3307
